Measurements reported in ChEMBL document CHEMBL4842306, “Pentadecaibins I-V: 15-Residue Peptaibols Produced by a Marine-Derived Trichoderma sp. of the Harzianum Clade” (J Nat Prod, 2021).
Non-standard residues stand in square brackets, D forms with d. Residues, ends and D or L forms follow the SMILES beside them. Phe(ol) = N[C@H](CO)Cc1ccccc1; Aib = CC(C)(N)C(=O)O

What was measured:
Escherichia coli = test: Antibacterial activity against Escherichia coli CIP54.8T assessed as inhibition of microbial growth incubated for 24 hrs by spectrophotometry; type: functional
KB = test: Cytotoxicity against human KB cells assessed as cell viability after 72 hrs by MTT assay; type: functional, cell-based
Staphylococcus aureus = test: Antibacterial activity against Staphylococcus aureus CIP53.156 assessed as inhibition of microbial growth incubated for 24 hrs by spectrophotometry; type: functional
Candida albicans = test: […] isolate Candida albicans assessed as inhibition of microbial growth incubated for 24 hrs by spectrophotometry; type: functional

| MIC (Escherichia coli) [µg/mL] | MIC (Staphylococcus aureus) [µg/mL] | MIC (Candida albicans) [µg/mL] | SMILES | IC50 (KB) [nM] |
| --- | --- | --- | --- | --- |
| > 100 | > 100 | > 100 | CC[C@@](C)(NC(=O)[C@H](CCC(N)=O)NC(=O)C(C)(C)NC(=O)[C@H](CC(C)C)NC(=O)[C@H](C)NC(=O)CNC(=O)C(C)(C)NC(C)=O)C(=O)N[C@@H](CC(C)C)C(=O)NC(C)(C)C(=O)N[C@@H](C)C(=O)NC(C)(C)C(=O)NC(C)(C)C(=O)NC(C)(C)C(=O)N[C@@H](CCC(N)=O)C(=O)N[C@H](CO)Cc1ccccc1 | 800 |
| > 100 | 25 | > 100 | CC[C@@](C)(NC(=O)[C@H](CCC(N)=O)NC(=O)C(C)(C)NC(=O)[C@H](CC(C)C)NC(=O)[C@H](C)NC(=O)CNC(=O)C(C)(C)NC(C)=O)C(=O)N[C@H](C(=O)NC(C)(C)C(=O)N[C@@H](C)C(=O)NC(C)(C)C(=O)NC(C)(C)C(=O)NC(C)(C)C(=O)N[C@@H](CCC(N)=O)C(=O)N[C@H](CO)Cc1ccccc1)C(C)C | 800 |
| – | – | – | CC(=O)NC(C)(C)C(=O)N1CCC[C@H]1C(=O)NC(C)(C)C(=O)N[C@@H](C)C(=O)NC(C)(C)C(=O)N[C@@H](C)C(=O)N[C@@H](CCC(N)=O)C(=O)NC(C)(C)C(=O)N[C@H](C(=O)NC(C)(C)C(=O)NCC(=O)N[C@@H](CC(C)C)C(=O)NC(C)(C)C(=O)N1CCC[C@H]1C(=O)N[C@H](C(=O)NC(C)(C)C(=O)NC(C)(C)C(=O)N[C@H](CCC(N)=O)C(=O)N[C@H](CCC(N)=O)C(=O)N[C@H](CO)Cc1ccccc1)C(C)C)C(C)C | 9000 |
| > 100 | 25 | > 100 | CC[C@@](C)(NC(=O)[C@H](CC(C)C)NC(=O)[C@H](C)NC(=O)CNC(=O)C(C)(C)NC(C)=O)C(=O)N[C@@H](CCC(N)=O)C(=O)N[C@](C)(CC)C(=O)N[C@H](C(=O)NC(C)(C)C(=O)N[C@@H](C)C(=O)NC(C)(C)C(=O)NC(C)(C)C(=O)NC(C)(C)C(=O)N[C@@H](CCC(N)=O)C(=O)N[C@H](CO)Cc1ccccc1)C(C)C | 700 |
| > 100 | > 100 | > 100 | CC(=O)NC(C)(C)C(=O)NCC(=O)N[C@@H](C)C(=O)N[C@@H](CC(C)C)C(=O)NC(C)(C)C(=O)N[C@@H](CCC(N)=O)C(=O)NC(C)(C)C(=O)N[C@@H](CC(C)C)C(=O)NC(C)(C)C(=O)N[C@@H](C)C(=O)NC(C)(C)C(=O)NC(C)(C)C(=O)NC(C)(C)C(=O)N[C@@H](CCC(N)=O)C(=O)N[C@H](CO)Cc1ccccc1 (Ac-[Aib]GAL[Aib]Q[Aib]L[Aib]A[Aib][Aib][Aib]Q[Phe(ol)]) | 4300 |
| > 100 | 25 | > 100 | CC(=O)NC(C)(C)C(=O)NCC(=O)N[C@@H](C)C(=O)N[C@@H](CC(C)C)C(=O)NC(C)(C)C(=O)N[C@@H](CCC(N)=O)C(=O)NC(C)(C)C(=O)N[C@H](C(=O)NC(C)(C)C(=O)N[C@@H](C)C(=O)NC(C)(C)C(=O)NC(C)(C)C(=O)NC(C)(C)C(=O)N[C@@H](CCC(N)=O)C(=O)N[C@H](CO)Cc1ccccc1)C(C)C (Ac-[Aib]GAL[Aib]Q[Aib]V[Aib]A[Aib][Aib][Aib]Q[Phe(ol)]) | 2400 |
